In patent publication US20250090507A1, “Methods of Treating Cancer With a B-RAF Inhibitor” (MapKure, LLC, priority 2022, published 2025):
“Also recorded” adds a separate entry of the source. Read-outs that look alike come from different tables or passages of the source.

Legend:
[1] = Phase 1 study (NCT04249843): plasma pharmacokinetics of Compound A; format: in vivo, human; settings: for Racc: accumulation ratio based on AUC8h; for Cmax / AUC(0-t) / Tmax: human, plasma, oral
Method: For a single-dose profile: AUC from zero to the last measurable concentration (AUClast), AUC from zero to infinity (AUC0-∞), maximum observed plasma concentration (Cmax), time to maximum observed plasma concentration (tmax), t1/2, apparent clearance, and apparent volume of distribution (Vz/F). In addition, AUClast,ss, AUCtau, Cmax,ss, and tmax, ss were calculated at steady state.
Pharmacokinetic assay: plasma samples were assayed for Compound A (or possible major metabolites) concentration with use of a validated chromatography method.
Pharmacokinetic data were analyzed using the PK Population. Compound A PK variables (i.e., AUClast, AUC0-∞, Cmax, Tmax, t1/2, apparent clearance and Vz/F) were calculated after single dosing in Phase 1a. In addition, AUClast, ss, AUCtau, Cmax,ss, and tmax,ss were calculated in Phase 1b. The PK parameters were calculated as appropriate using noncompartmental methods and summary statistics were provided. Compound A (or possible major metabolites) plasma concentration data and PK parameters were tabulated and summarized for Day 1 of Cycle 1, Day 1 of Cycle 2 and at steady state (Phase 1b). Descriptive statistics included means, medians, minimums, maximums, standard deviation, coefficient of variation (CV), geometric mean, and geometric CV as appropriate. Mean plasma concentrations were also plotted against time for each dose level. Additional PK analyses may be conducted as appropriate.
Tumor response: • 1 patient evaluable, 201-011: SD week 8. • Preliminary PK parameters and data are listed in Table 6. • Parameters listed as Mean (% CV) • Tmax reported as median (min, max) • Accumulation ratio Racc based on AUC8h • Patient 101-007 was excluded from C2D1 of cohort 2 (10 mg) due to dose reduction. • Patient 101-011 was excluded from summary statistics of CID1 of cohort 6 (60 mg) due to […] samples. • Patient 201-011 C2D1 parameters excluded from summary statistics of C2D1 of cohort 6 due to extended dose interruption.

[2] = Solubility of the solid form; format: physicochemical; settings: Form I
[3] = 40 mg, 40 mg QD, C2D1, patient 202-012

O=C1CCc2c(Oc3ccc4c(c3)[C@H]3[C@H](NC(=O)Nc5cc(F)c(F)cc5F)[C@H]3O4)ccnc2N1 [Compound A, 1-((1S,1aS,6bS)-5-((7-oxo-5,6,7,8-tetrahydro-1,8-naphthyridin-4-yl)oxy)-1a,6b-dihydro-1H-cyclopropa[b]benzofuran-1-yl)-3-(2,4,5-trifluorophenyl)urea]
Racc ([1]; 5 mg QD, Mean (%CV)): 17 (117%) | Racc ([1]; 10 mg QD, Mean (%CV)): 6 (49%) | Racc ([1]; 15 mg QD, Mean (%CV)): 7 (60%) | Racc ([1]; 25 mg QD, Mean (%CV)): 4 (23%) | Racc ([1]; 40 mg QD, Mean (%CV)): 4 (23.5%) | Racc ([1]; 40 mg QD, patient 101-010): 4.05 | Racc ([1]; 40 mg QD, patient 102-012): 4.06 | Racc ([1]; 40 mg QD, patient 201-010): 5.43 | Racc ([1]; 40 mg QD, patient 202-012): 3.06 | Racc ([1]; 60 mg QD, patient 101-011): 6.7 | Racc ([1]; 60 mg QD, patient 201-011): 5.7 | Dose proportionality of exposure ([1]; 5-60 mg QD, preliminary PK): generally increased dose-proportionally; also recorded: generally dose-proportional | Exposure across cohorts versus dose ([1]; cohorts up to 40 mg QD): generally proportional to the increase in the dose | Cmax ([1]; 5 mg, 5 mg QD, C2D1, Mean (%CV)): 451 ng/mL | AUC(0-t) ([1]; 5 mg, 5 mg QD, C2D1, Mean (%CV), read-out: AUC8 h): 2660 ng·h/mL | Cmax ([1]; 5 mg, C1D1, Mean (%CV)): 105 ng/mL | AUC(0-t) ([1]; 5 mg, C1D1, Mean (%CV), read-out: AUC8 h): 414 ng·h/mL | AUC(0-t) ([1]; 5 mg, C1D1, Mean (%CV), read-out: AUC24 h): 1380 ng·h/mL | Cmax ([1]; 10 mg, 10 mg QD, C2D1, Mean (%CV), patient 101-007 excluded): 973 ng/mL | AUC(0-t) ([1]; 10 mg, 10 mg QD, C2D1, Mean (%CV), patient 101-007 excluded, read-out: AUC8 h): 5720 ng·h/mL | Cmax ([1]; 10 mg, C1D1, Mean (%CV)): 197 ng/mL | AUC(0-t) ([1]; 10 mg, C1D1, Mean (%CV), read-out: AUC8 h): 1060 ng·h/mL | AUC(0-t) ([1]; 10 mg, C1D1, Mean (%CV), read-out: AUC24 h): 3140 ng·h/mL | Cmax ([1]; 15 mg, 15 mg QD, C2D1, Mean (%CV)): 1660 ng/mL | AUC(0-t) ([1]; 15 mg, 15 mg QD, C2D1, Mean (%CV), read-out: AUC8 h): 9930 ng·h/mL | Cmax ([1]; 15 mg, C1D1, Mean (%CV)): 274 ng/mL | AUC(0-t) ([1]; 15 mg, C1D1, Mean (%CV), read-out: AUC8 h): 1530 ng·h/mL | AUC(0-t) ([1]; 15 mg, C1D1, Mean (%CV), read-out: AUC24 h): 4780 ng·h/mL | Cmax ([1]; 25 mg, 25 mg QD, C2D1, Mean (%CV)): 2110 ng/mL | AUC(0-t) ([1]; 25 mg, 25 mg QD, C2D1, Mean (%CV), read-out: AUC8 h): 12300 ng·h/mL | Cmax ([1]; 25 mg, C1D1, Mean (%CV)): 593 ng/mL | AUC(0-t) ([1]; 25 mg, C1D1, Mean (%CV), read-out: AUC8 h): 3090 ng·h/mL | AUC(0-t) ([1]; 25 mg, C1D1, Mean (%CV), read-out: AUC24 h): 9170 ng·h/mL | Cmax ([1]; 40 mg, 40 mg QD, C2D1, Mean (%CV)): 2970 ng/mL | AUC(0-t) ([1]; 40 mg, 40 mg QD, C2D1, Mean (%CV), read-out: AUC8 h): 15700 ng·h/mL | Cmax ([1]; 40 mg, 40 mg QD, C2D1, patient 101-010): 3600 ng/mL | AUC(0-t) ([1]; 40 mg, 40 mg QD, C2D1, patient 101-010, read-out: AUC8 h): 15600 ng·h/mL | Cmax ([1]; 40 mg, 40 mg QD, C2D1, patient 102-012): 3550 ng/mL | AUC(0-t) ([1]; 40 mg, 40 mg QD, C2D1, patient 102-012, read-out: AUC8 h): 18300 ng·h/mL | Cmax ([1]; 40 mg, 40 mg QD, C2D1, patient 201-010): 2410 ng/mL | AUC(0-t) ([1]; 40 mg, 40 mg QD, C2D1, patient 201-010, read-out: AUC8 h): 13400 ng·h/mL | Cmax [1, 3]: 2300 ng/mL | Tmax [1, 3]: 3 h | AUC(0-t) ([1]; 40 mg, 40 mg QD, C2D1, patient 202-012, read-out: AUC8 h): 15400 ng·h/mL | Cmax ([1]; 40 mg, C1D1, Mean (%CV)): 698 ng/mL | AUC(0-t) ([1]; 40 mg, C1D1, Mean (%CV), read-out: AUC8 h): 3960 ng·h/mL | AUC(0-t) ([1]; 40 mg, C1D1, Mean (%CV), read-out: AUC24 h): 12100 ng·h/mL | Cmax ([1]; 40 mg, C1D1, patient 101-010): 692 ng/mL | AUC(0-t) ([1]; 40 mg, C1D1, patient 101-010, read-out: AUC8 h): 3850 ng·h/mL | AUC(0-t) ([1]; 40 mg, C1D1, patient 101-010, read-out: AUC24 h): 12000 ng·h/mL | Cmax ([1]; 40 mg, C1D1, patient 102-012): 789 ng/mL | AUC(0-t) ([1]; 40 mg, C1D1, patient 102-012, read-out: AUC8 h): 4510 ng·h/mL | AUC(0-t) ([1]; 40 mg, C1D1, patient 102-012, read-out: AUC24 h): 12300 ng·h/mL | Cmax ([1]; 40 mg, C1D1, patient 201-010): 415 ng/mL | AUC(0-t) ([1]; 40 mg, C1D1, patient 201-010, read-out: AUC8 h): 2470 ng·h/mL | AUC(0-t) ([1]; 40 mg, C1D1, patient 201-010, read-out: AUC24 h): 8460 ng·h/mL | Cmax ([1]; 40 mg, C1D1, patient 202-012): 896 ng/mL | AUC(0-t) ([1]; 40 mg, C1D1, patient 202-012, read-out: AUC8 h): 5040 ng·h/mL | Cmax ([1]; 60 mg, 60 mg QD, C2D1, Mean row, patient 201-011 excluded): 5330 ng/mL | AUC(0-t) ([1]; 60 mg, 60 mg QD, C2D1, Mean row, patient 201-011 excluded, read-out: AUC8 h): 37500 ng·h/mL | Cmax ([1]; 60 mg, 60 mg QD, C2D1, patient 201-011 (excluded from C2D1 summary, extended dose interruption)): 5230 ng/mL | AUC(0-t) ([1]; 60 mg, 60 mg QD, C2D1, patient 201-011 (excluded from C2D1 summary, extended dose interruption), read-out: AUC8 h): 31300 ng·h/mL | Cmax ([1]; 60 mg, C1D1, Mean (%CV), patient 101-011 excluded): 881 ng/mL | AUC(0-t) ([1]; 60 mg, C1D1, Mean (%CV), patient 101-011 excluded, read-out: AUC8 h): 4930 ng·h/mL | AUC(0-t) ([1]; 60 mg, C1D1, Mean (%CV), patient 101-011 excluded, read-out: AUC24 h): 15400 ng·h/mL | Cmax ([1]; 60 mg, C1D1, patient 101-011 (excluded from C1D1 summary statistics, AQL samples)): 878 ng/mL | AUC(0-t) ([1]; 60 mg, C1D1, patient 101-011 (excluded from C1D1 summary statistics, AQL samples), read-out: AUC8 h): 5630 ng·h/mL | AUC(0-t) ([1]; 60 mg, C1D1, patient 101-011 (excluded from C1D1 summary statistics, AQL samples), read-out: AUC24 h): 18900 ng·h/mL | Cmax ([1]; 60 mg, C1D1, patient 201-011): 957 ng/mL | AUC(0-t) ([1]; 60 mg, C1D1, patient 201-011, read-out: AUC8 h): 5510 ng·h/mL | AUC(0-t) ([1]; 60 mg, C1D1, patient 201-011, read-out: AUC24 h): 17600 ng·h/mL | Cmax ([1]; 60 mg, C1D1, patient 202-014): 804 ng/mL | AUC(0-t) ([1]; 60 mg, C1D1, patient 202-014, read-out: AUC8 h): 4340 ng·h/mL | AUC(0-t) ([1]; 60 mg, C1D1, patient 202-014, read-out: AUC24 h): 13100 ng·h/mL | Tmax ([1]; 5 mg QD, C2D1, median (min, max)): 1 h | Tmax ([1]; 40 mg QD, C2D1, median (min, max)): 1.5 h | Tmax ([1]; 60 mg QD, C2D1, patient 201-011 (excluded from C2D1 summary, extended dose interruption)): 2 h | Tmax ([1]; 5-60 mg QD, preliminary PK, overall): ~2 h | average accumulation in exposure at steady-state ([1]; preliminary PK): 7.4 fold | terminal half-life ([1]; preliminary PK): long | Solubility ([2]; in dimethyl sulfoxide (DMSO) and dimethylacetamide (DMA)): high solubility | Solubility ([2]; in water): Low solubility
